{"source": "patent US20250154126A1", "about": "“CRYSTALLINE FORM OF SULFUR-CONTAINING ISOINDOLINE DERIVATIVE” (JIANGSU HENGRUI PHARMACEUTICALS CO., LTD., priority 2022, published 2025)", "type_in_all_cases": "physicochemical", "key": {"[1]": {"assay": "Hygroscopicity study of crystal forms (dynamic vapour sorption, 25° C.)", "text": "According to the “9103 Guideline for Hygroscopicity for Pharmaceuticals” in Part IV of the 2015 edition of the Chinese Pharmacopoeia, descriptions of hygroscopic characteristics and definitions of hygroscopic weight gain are as follows; • Deliquescent: Absorbs sufficient moisture to form a liquid; • Extremely hygroscopic: Hygroscopic weight gain is no less than 15%; • Hygroscopic: Hygroscopic weight gain is less than 15% but no less than 2%; • Slightly hygroscopic: Hygroscopic weight gain is less than 2% but no less than 0.2%; • Non-hygroscopic or nearly non-hygroscopic: Hygroscopic weight gain is less than 0.2%.\nCompound of Formula (I) (Oct. 15, 2021, Nanjing) 03881 Using the Surface Measurement Systems advantage 2, at a temperature of 25° C., and starting at a humidity of 50%, the humidity range was examined from […] to 95%, with increments of 10%. The criterion for evaluation was that the mass change dM/dT at each gradient was less than 0.002%, TMAX was 360 min, and the process was cycled twice."}, "[2]": {"assay": "Influencing factor stability of crystal forms (light, high temperature, high humidity, 30 days)", "description": "Each crystal form was spread out in an open exposure setup, and the stability of the samples under conditions of light (4500 Lux), high temperature (40° C., 60° C.), and high humidity (RH 75 RH 92.5%) was examined separately. The sampling inspection period was 30 days."}, "[3]": {"assay": "Long-term/accelerated stability of crystal forms (25° C. 60% RH and 40° C. 75% RH)", "description": "The crystal forms D, E, Q, and U of the compound of formula (I) were respectively placed under conditions of 25° C. with 60% RH and 40° C. with 75% RH to evaluate their stability."}}}
{"smiles": "N#Cc1ccc(N2CCC(Sc3ccc(COc4cccc5c4CN([C@H]4CCC(=O)NC4=O)C5=O)cn3)CC2)c(F)c1", "note": "[Crystal form Q, (S)-4-(4-((5-(((2-(2,6-dioxopiperidin-3-yl)-1-oxoisoindolin-4-yl)oxy)methyl)pyridin-2-yl)thio)piperidin-1-yl)-3-fluorobenzonitrile]", "values": [{"measurement": "Hygroscopic weight change 0.0% RH-95.0% RH", "setting": "[1]; 0.0% RH-95.0% RH", "result": 0.67, "unit": "%"}, {"measurement": "Hygroscopic weight change 20% RH-80% RH", "setting": "[1]; 20% RH-80% RH", "result": 0.24, "unit": "%"}, {"measurement": "Hygroscopicity class (20% RH-80% RH)", "setting": "[1]; 20% RH-80% RH", "result": "(slightly hygroscopic)"}, {"measurement": "Crystal form after hygroscopicity test", "setting": "[1]; two cycles", "result": "Untransformed"}, {"measurement": "Color and character", "setting": "[2]; 40° C., 7 days, open exposure", "result": "White solid"}, {"measurement": "Purity %", "setting": "[2]; 40° C., 7 days, open exposure", "result": 99.5, "unit": "%"}, {"measurement": "Color and character", "setting": "[2]; 40° C., 14 days, open exposure", "result": "White solid"}, {"measurement": "Purity %", "setting": "[2]; 40° C., 14 days, open exposure, listed as Free crystal form Q", "result": 99.4, "unit": "%"}, {"measurement": "Color and character", "setting": "[2]; 40° C., 30 days, open exposure", "result": "White solid"}, {"measurement": "Purity %", "setting": "[2]; 40° C., 30 days, open exposure, listed as Free crystal form Q", "result": 99.1, "unit": "%"}, {"measurement": "change in purity under 60° C. and light", "setting": "[2]; 60° C. and light (4500 Lux), 30 days, open", "result": "slight decrease in purity"}, {"measurement": "Color and character", "setting": "[2]; 60° C., 7 days, open exposure", "result": "White solid"}, {"measurement": "Purity %", "setting": "[2]; 60° C., 7 days, open exposure, listed as Free crystal form Q", "result": 99.3, "unit": "%"}, {"measurement": "Color and character", "setting": "[2]; 60° C., 14 days, open exposure", "result": "White solid"}, {"measurement": "Purity %", "setting": "[2]; 60° C., 14 days, open exposure, listed as Free crystal form Q", "result": 98.9, "unit": "%"}, {"measurement": "Color and character", "setting": "[2]; 60° C., 30 days, open exposure", "result": "White solid"}, {"measurement": "Purity %", "setting": "[2]; 60° C., 30 days, open exposure, listed as Free crystal form Q", "result": 98.5, "unit": "%"}, {"measurement": "Color and character", "setting": "[2]; 75% RH, 7 days, open exposure", "result": "White solid"}, {"measurement": "Purity %", "setting": "[2]; 75% RH, 7 days, open exposure", "result": 99.6, "unit": "%"}, {"measurement": "Color and character", "setting": "[2]; 75% RH, 14 days, open exposure", "result": "White solid"}, {"measurement": "Purity %", "setting": "[2]; 75% RH, 14 days, open exposure, listed as Free crystal form Q", "result": 99.6, "unit": "%"}, {"measurement": "Color and character", "setting": "[2]; 75% RH, 30 days, open exposure", "result": "White solid"}, {"measurement": "Purity %", "setting": "[2]; 75% RH, 30 days, open exposure, listed as Free crystal form Q", "result": 99.6, "unit": "%"}, {"measurement": "Color and character", "setting": "[2]; 92.5% RH, 14 days, open exposure", "result": "White solid"}, {"measurement": "Purity %", "setting": "[2]; 92.5% RH, 14 days, open exposure, listed as Free crystal form Q", "result": 99.6, "unit": "%"}, {"measurement": "Color and character", "setting": "[2]; 92.5% RH, 30 days, open exposure", "result": "White solid"}, {"measurement": "Purity %", "setting": "[2]; 92.5% RH, 30 days, open exposure, listed as Free crystal form Q", "result": 99.5, "unit": "%"}, {"measurement": "Color and character", "setting": "[2]; Onset, 0 days", "result": "White solid"}, {"measurement": "Purity %", "setting": "[2]; Onset, 0 days, listed as Free crystal form Q", "result": 99.6, "unit": "%"}, {"measurement": "physicochemical stability under high humidity", "setting": "[2]; high humidity conditions of 75% and 92.5%, 30 days, open", "result": "good physicochemical stability"}, {"measurement": "Color and character", "setting": "[2]; light 4500 Lux, 7 days, open exposure", "result": "White solid"}, {"measurement": "Purity %", "setting": "[2]; light 4500 Lux, 7 days, open exposure, listed as Free crystal form Q", "result": 99.5, "unit": "%"}, {"measurement": "Color and character", "setting": "[2]; light 4500 Lux, 14 days, open exposure", "result": "White solid"}, {"measurement": "Purity %", "setting": "[2]; light 4500 Lux, 14 days, open exposure, listed as Free crystal form Q", "result": 98.8, "unit": "%"}, {"measurement": "Color and character", "setting": "[2]; light 4500 Lux, 30 days, open exposure", "result": "White solid"}, {"measurement": "Purity %", "setting": "[2]; light 4500 Lux, 30 days, open exposure, listed as Free crystal form Q", "result": 93.9, "unit": "%"}, {"measurement": "crystal form after influencing factor experiments", "setting": "[2]; light, high temperature, high humidity, 30 days", "result": "remain unchanged"}, {"measurement": "physical and chemical stability, long-term accelerated conditions", "setting": "[3]; 25° C. 60% RH and 40° C. 75% RH, six months", "result": "good physical and chemical stability"}, {"measurement": "Purity % 1 month", "setting": "[3]; 25° C., 60% RH", "result": 99.5, "unit": "%"}, {"measurement": "Purity % 2 months", "setting": "[3]; 25° C., 60% RH", "result": 99.5, "unit": "%"}, {"measurement": "Purity % 3 months", "setting": "[3]; 25° C., 60% RH", "result": 99.5, "unit": "%"}, {"measurement": "Purity % 1 month", "setting": "[3]; 40° C., 75% RH", "result": 99.5, "unit": "%"}, {"measurement": "Purity % 2 months", "setting": "[3]; 40° C., 75% RH", "result": 99.4, "unit": "%"}, {"measurement": "Purity % 3 months", "setting": "[3]; 40° C., 75% RH", "result": 99.4, "unit": "%"}, {"measurement": "Purity % 6 months", "setting": "[3]; 40° C., 75% RH, 6 months", "result": 99.1, "unit": "%"}, {"measurement": "Purity % Onset", "setting": "[3]; onset", "result": 99.6, "unit": "%"}]}
